Laboratory results as given in ChEMBL document CHEMBL1201862, “PubChem BioAssay data set” (2004).
“And” between values parts separate entries of the source, which are not always exact repeats. Equal entries are not always repeated. The source made the active and inactive calls.

How the values were obtained:
[1] = NIH-3T3 fibroblast cytotoxicity, dose response, cytotoxicity control, cell-based, fluorescence, Alamar Blue, secondary assay (AID 2327); assay type: functional;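 note: NIH-3T3 mouse fibroblasts cultured with fluconazole at 8 µg/mL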
BJ = test: BJ-TERT-LT-ST fibroblast viability loss – cell-based, RAS-independent, luminescence, dose response (AID 1935); assay type: functional; conditions: Homo sapiens;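 note: BJ fibroblasts immortalized with TERT plus LT and ST oncogenes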
[2] = DRD fibroblast viability loss – cell-based, non-viral oncogenic, luminescence, dose response (AID 1934); assay type: functional; conditions: Homo sapiens
[3] = biological target: Heat shock protein HSP 90-alpha (Homo sapiens, UniProt P07900); assay type: functional, organism-based
Estrogen receptor beta = Estrogen receptor beta (Homo sapiens, UniProt Q92731); test: blockers of SRC-3 recruitment to ERβ – biochemical, ELISA, streptavidin-HRP readout, orthogonal assay, confirmation (AID 1060)
Chain of Estrogen receptor beta (Q92731 whole entry): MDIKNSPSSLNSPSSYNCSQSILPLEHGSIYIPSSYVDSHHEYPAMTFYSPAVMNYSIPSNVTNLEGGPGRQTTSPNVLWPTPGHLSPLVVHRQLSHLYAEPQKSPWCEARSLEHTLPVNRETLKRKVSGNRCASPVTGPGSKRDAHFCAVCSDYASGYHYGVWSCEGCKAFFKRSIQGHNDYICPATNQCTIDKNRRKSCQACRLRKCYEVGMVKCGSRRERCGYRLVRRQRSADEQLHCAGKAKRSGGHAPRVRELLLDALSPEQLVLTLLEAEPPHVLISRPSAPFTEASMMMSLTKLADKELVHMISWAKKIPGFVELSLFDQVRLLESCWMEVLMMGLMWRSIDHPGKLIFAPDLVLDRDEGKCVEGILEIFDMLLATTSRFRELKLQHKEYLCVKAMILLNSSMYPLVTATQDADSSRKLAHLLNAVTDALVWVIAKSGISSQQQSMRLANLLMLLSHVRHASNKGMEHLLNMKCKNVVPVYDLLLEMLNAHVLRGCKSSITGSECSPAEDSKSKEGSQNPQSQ

[4] = biological target: T1, Tyrosine-protein phosphatase non-receptor type 11 (Homo sapiens, UniProt Q06124); test: PTPN11 enzyme inhibitors – biochemical, selectivity assay for STEP inhibitor project, dose response (AID 602367); assay type: functional; conditions: read-out: IC50_Mean
T1 sequence (Q06124 whole entry): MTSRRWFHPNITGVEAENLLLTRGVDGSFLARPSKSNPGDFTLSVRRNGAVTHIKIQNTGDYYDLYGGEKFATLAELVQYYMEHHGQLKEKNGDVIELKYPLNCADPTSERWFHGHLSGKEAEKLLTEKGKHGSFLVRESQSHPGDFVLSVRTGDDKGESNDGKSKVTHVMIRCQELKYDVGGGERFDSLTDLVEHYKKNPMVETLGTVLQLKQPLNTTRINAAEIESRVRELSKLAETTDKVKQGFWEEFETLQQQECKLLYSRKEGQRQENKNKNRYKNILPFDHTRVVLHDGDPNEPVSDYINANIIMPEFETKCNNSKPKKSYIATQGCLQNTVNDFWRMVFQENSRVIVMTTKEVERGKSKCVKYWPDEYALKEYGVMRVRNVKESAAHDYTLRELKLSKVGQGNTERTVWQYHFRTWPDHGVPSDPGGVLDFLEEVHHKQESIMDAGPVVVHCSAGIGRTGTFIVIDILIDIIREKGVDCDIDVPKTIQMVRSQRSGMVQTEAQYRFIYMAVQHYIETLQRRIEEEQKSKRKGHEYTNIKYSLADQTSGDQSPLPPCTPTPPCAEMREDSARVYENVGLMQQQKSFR

[5] = biological target: T2, Tyrosine-protein phosphatase non-receptor type 22 (Homo sapiens, UniProt Q9Y2R2); test: SAR LYP1 Fluorescent Assay using pCAP substrate for In Vitro dose response studies - Set 4. [Related pubchem assays (depositor defined):AID1779, AID1784]; assay type: functional
T2 sequence (Q9Y2R2 whole entry): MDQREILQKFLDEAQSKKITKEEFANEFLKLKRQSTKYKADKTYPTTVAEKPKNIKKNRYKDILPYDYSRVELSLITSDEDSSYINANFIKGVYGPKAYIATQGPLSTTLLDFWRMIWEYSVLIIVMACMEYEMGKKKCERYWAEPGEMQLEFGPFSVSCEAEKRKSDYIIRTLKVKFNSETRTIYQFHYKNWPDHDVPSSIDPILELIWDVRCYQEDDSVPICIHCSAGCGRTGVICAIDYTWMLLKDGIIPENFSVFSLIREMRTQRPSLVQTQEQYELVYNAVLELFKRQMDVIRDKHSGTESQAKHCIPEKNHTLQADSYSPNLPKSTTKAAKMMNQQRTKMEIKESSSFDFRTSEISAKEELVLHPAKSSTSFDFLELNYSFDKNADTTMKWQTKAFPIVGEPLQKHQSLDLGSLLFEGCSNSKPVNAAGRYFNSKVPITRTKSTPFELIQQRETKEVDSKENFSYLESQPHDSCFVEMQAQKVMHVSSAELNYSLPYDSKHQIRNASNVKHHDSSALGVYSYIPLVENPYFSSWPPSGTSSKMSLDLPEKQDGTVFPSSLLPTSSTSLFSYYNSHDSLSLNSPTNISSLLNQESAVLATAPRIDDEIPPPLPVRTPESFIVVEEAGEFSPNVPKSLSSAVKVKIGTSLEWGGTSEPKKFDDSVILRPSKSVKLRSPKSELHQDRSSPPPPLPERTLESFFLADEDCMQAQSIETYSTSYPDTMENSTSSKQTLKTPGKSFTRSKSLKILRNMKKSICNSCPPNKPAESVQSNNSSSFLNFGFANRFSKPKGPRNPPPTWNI

[6] = biological target: T3, Glutathione-S-transferase (Schistosoma japonicum, UniProt Q26513); test: GST-antibody interaction or FRET quenching – biochemical, TR-FRET, artefact control for Vif-APOBEC3G degradation inhibitor project, dose response (AID 1117362); assay type: functional
T3 sequence (Q26513 whole entry): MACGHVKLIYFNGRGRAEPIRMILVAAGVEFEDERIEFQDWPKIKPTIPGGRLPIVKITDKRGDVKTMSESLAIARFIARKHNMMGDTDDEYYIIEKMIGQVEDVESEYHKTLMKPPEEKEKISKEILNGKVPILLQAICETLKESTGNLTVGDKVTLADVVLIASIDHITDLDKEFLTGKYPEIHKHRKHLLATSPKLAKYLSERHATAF

Cysteine protease ATG4B = biological target: T4, Cysteine protease ATG4B (Homo sapiens, UniProt Q9Y4P1); assay type: functional;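 note: Fluorescence-based dose-response confirmation assay measuring inhibition of ATG4B activity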
T4 sequence (Q9Y4P1 whole entry): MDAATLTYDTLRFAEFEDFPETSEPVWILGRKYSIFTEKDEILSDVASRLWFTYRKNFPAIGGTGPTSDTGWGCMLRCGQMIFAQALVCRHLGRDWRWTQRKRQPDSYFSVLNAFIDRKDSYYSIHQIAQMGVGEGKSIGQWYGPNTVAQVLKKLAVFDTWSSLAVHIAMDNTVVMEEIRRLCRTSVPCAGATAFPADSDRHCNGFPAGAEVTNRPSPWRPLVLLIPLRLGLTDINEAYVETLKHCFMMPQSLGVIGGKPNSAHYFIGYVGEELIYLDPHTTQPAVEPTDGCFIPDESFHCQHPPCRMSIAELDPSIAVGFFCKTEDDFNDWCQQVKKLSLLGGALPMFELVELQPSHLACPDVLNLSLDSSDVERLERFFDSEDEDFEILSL

CCN1/C(=C/c2ccc3cc(C)ccc3[n+]2CC)Sc2cc(C)c(C)cc21
EC50 [1]: 9.66 µM (inconclusive)
EC50 (BJ): 13.7 µM (inconclusive)
EC50 [2]: 1.43 µM (active)
AC50 [3]: 4.16 µM (active) and 2.67 µM (active)

COc1ccc(C(=O)Nc2nc3c(s2)Cc2cc(OC)ccc2-3)cc1
IC50 (Estrogen receptor beta): < 0.023 µM (not active)

CSc1ccc(C=NNc2ccc(S(=O)(=O)Nc3ccccc3C(=O)O)cc2[N+](=O)[O-])cc1
IC50 [4]: 1.11 µM (active)

O=C(O)COc1ccc(/C=N/NC(=O)c2ccc(-c3csc(Nc4ccc(Cl)cc4)n3)cc2)cc1
IC50 [5]: 0.527 µM (active)

COc1cc(NCCCNC(C)C)c2nccc(C)c2c1
IC50 [6]: 28.7 µM (active)

CC(/C=C1\SC(=S)N(NS(=O)(=O)c2ccccc2)C1=O)=C\c1ccccc1
IC50 (Cysteine protease ATG4B): 12 µM (active)
